Experimental data reported in US8906869B2 (University of South Florida, priority 2007, dated 2014).

Legend:
PTEN [1] = experiment: Immunoblotting of PTEN protein in A2780CP cells after knockdown of miR-214; type: cell-based, human; settings: 150 pM/well, 72 h
Description: (§1) PTEN mRNA level was measured by RT-PCR (panel 8). U6 (panel 7) and GAPDH (bottom panel) were used for controls. […] Anti-mi[…] and scramble 2'-O-methyl oligonucleotide were used as controls. After incubation of 72 h, cells were lysed and immunoblotted with indicated antibodies (C). […] Following 36 h incubation, cells were subjected to luciferase assay. The data are the means of three independent experiments, and error bars indicate standard deviations. (F) Representative tumor and normal tissue lysates were analyzed by Western blot with indicated antibodies (panels 1 and 2). […] U6 was used as a control (bottom panel). […] Cells were grown in 6-well plate ([…]) for 24 hand transfected with 150 pMol of 2'-O-me oligoribonucleotides per well using Lipofectamine 2000. RNA and protein were extracted after 72 h transfection. […] The cells transfected with pcDNA3.[…][…]-Togo vector alone and pcDNA3.[…][…]-Topo-miR-199a* were used as controls. […]). […] PTEN protein was examined in a same series of normal ovary and primary ovarian tumor specimens for expression of miRNAs (FIG. 2F).

miR-214 = experiment: qRT-PCR of miR-214 expression after antisense 2'-O-methyl oligonucleotide transfection; type: cell-based, human; settings: A2780CP cells, 150 pMol per well, 72 h transfection
Description: (§2) FIG. 4. […] (B) MTT assay. […] (C) Flow cytometry. Indicated cells were treated with cisplatin or DMSO for 12 h and the subG1 population was identified by flow cytometry.
Expression of miRNAs was also analysed by RNase protection or mirVana qRT-PCR miRNA detection assay. For RNase protection assay, enriched small RNA was purified using the miRVana miRNA isolation Kit (Ambion). […] Probe hybridization and RNase protection were then carried out using the mirVana™ miRNA detection kit (Ambion) according to manufacturer's instructions. After hybridization and RNase treatment, the double-strand products were resolved in a 15% polyacrylamide 8 M urea denaturing gel and visualized using phospho imaging and autoradiography. mirVanaqRT-PCR was performed according to the manufacturer's protocol (Ambion). PCR products were analyzed by electrophoresis, on a 7.5% polyacrylamide gel in 0.5×TBE and visualized by ethidium bromide staining.
2′-O-methyl (2-O-me) oligoribonucleotides were synthesized by Integrated DNA Technologies. […] […]-3′ (SEQ ID NO: 5) and 5′-[…]-3′ (SEQ ID NO: 6). 2′-O-me-scrambled miR (5′-[…]-3′) (SEQ ID NO: 7) was used as a control. Cells were grown in 6-well plate ([…]) for 24 hand transfected with 150 pMol of 2′-O-me oligoribonucleotides per well using Lipofectamine 2000. RNA and protein were extracted after 72 h transfection.

A2780CP cells = experiment: MTT cell viability and flow cytometry apoptosis in A2780CP cells; type: cell-based, human
Description: as §2
The cells transfected with 2′-O-methyl-scramble-miR were used as control. […] Further, the cells were treated with cisplatin or vehicle DMSO.

Akt = experiment: Immunoblotting of phosphorylation of Akt and Akt substrates in A2780CP cells after knockdown of miR-214; type: cell-based, human; settings: 150 pM/well, 72 h
Description: as §1

PTEN [2] = settings: ovarian cancer, reference 25; cited from earlier work

| Molecule | protein level of PTEN (PTEN [1]) | level of miR-214 (miR-214) | sensitization to cisplatin-induced apoptosis (A2780CP cells; cisplatin 20 uM, MTT and flow cytometry) | reduction of cell survival (A2780CP cells; knockdown of miR-214 alone, cell viability analysis) | phosphorylation levels of Akt and Akt substrates GSK3β and p70S6K (Akt) | PTEN protein expression (PTEN [2]) |
| --- | --- | --- | --- | --- | --- | --- |
| 2′-O-methyl-anti-miR-214: antisense 2′-O-methyl oligoribonucleotide targeting miR-214, 5′-CUGCCUGUCUGUGCCUGCUGU-3′ (SEQ ID NO: 5) (all 2'-O-methyl, backbone not given here) | increased the protein level of PTEN | significantly decreased | considerably sensitized A2780CP cells to cisplatin-induced apoptosis | about 20% | decreased | – |
| Nc1ncn([C@H]2C[C@H](O)[C@@H](CO)O2)c(=O)n1 [5-aza-2′ deoxycytidine] | – | – | – | – | – | failed to restore PTEN protein expression |
